Experimental findings from patent US20230399289A1, “ITACONIC ACID DERIVATIVES” (Sitryx Therapeutics Limited, priority 2020, published 2023) are described below.

For data set [1], the system named is IL-1β cytokine output from THP-1 cells. Nature of the data set: THP-1 AlphaLISA IL-1β cytokine assay. The class given is cell-based. The following applies: Homo sapiens, THP-1, differentiated THP-1 cells. On the procedure: (§1) Measuring Inhibitory Effects on IL-1β and IL-6 Cytokine Output from THP-1s
(§2) The cytokine inhibition profiles of compounds of formula (I) were determined in a differentiated THP-1 cell assay. All assays were performed in RPMI-1640 growth medium (Gibco), supplemented with 10% fetal bovine serum (FBS; Gibco), 1% penicillin-streptomycin and 1% sodium pyruvate unless specified otherwise. The IL-1β and IL-6 cytokine inhibition assays were each run in a background of differentiated THP-1 cells as described below. All reagents described were from Sigma-Aldrich unless specified otherwise. Compounds were prepared as 10 mM DMSO stocks.
(§3) THP-1 cells were expanded as a suspension up to 80% confluence in appropriate growth medium. Cells were harvested, suspended, and treated with an appropriate concentration of phorbol 12-myristate 13-acetate (PMA) over a 72 hr period (37° C./5% CO2).
(§4) Following 72 hrs of THP-1 cell incubation, cellular medium was removed and replaced with fresh growth media containing 1% of FBS. Working concentrations of compounds were prepared separately in 10% FBS treated growth medium and pre-incubated with the cells for 30 minutes (37° C./5% CO2). Following the 30 minute compound pre-incubation, THP-1s were treated with an appropriate concentration of LPS and the THP-1s were subsequently incubated for a 24 hr period (37° C./5% CO2). An appropriate final concentration of Nigericin was then dispensed into the THP-1 plates and incubated for 1 hour (37° C./5% CO2) before THP-1 supernatants were harvested and collected in separate polypropylene 96-well holding plates.
(§5) Reagents from each of the […] and IL-6 commercial kits (Perkin Elmer) were prepared and run according to the manufacturer's instructions. Subsequently, fluorescence signal detection in a microplate reader was measured (EnVision® Multilabel Reader, Perkin Elmer).
(§6) Percentage inhibition was calculated per cytokine by normalising the sample data to the high and low controls used within each plate (+/−LPS respectively). Percentage inhibition was then plotted against compound concentration and the 50% inhibitory concentration (IC50) was determined from the resultant concentration-response curve.
On the technique in general: Alpha assays give light when donor and acceptor beads are brought close together.

Data set [2] concerns IL-6 cytokine output from THP-1 cells. Briefly: THP-1 AlphaLISA IL-6 cytokine assay. In kind it is cell-based. The following applies: Homo sapiens, THP-1, differentiated THP-1 cells. On the procedure:
as §1, §2, §3, §4, §5, §6

For data set [3], the system named is NRF2 (nuclear factor erythroid 2-related factor 2). Nature of the data set: NRF2 +/−GSH activation assay (DiscoverX PathHunter NRF2 translocation kit, U2OS cells). As to conditions: Homo sapiens; for Emax: U2OS, normalised to dimethyl fumarate high control; for EC50: U2OS PathHunter cells, 6 hours. In kind it is cell-based.
The nature of data set [4]: Hepatocyte stability assay, human. In kind it is in vitro ADME. As to conditions: cryopreserved hepatocytes, 10 μM compound, 0.5×10^6 cells/mL, 60 min, read-out: T½. An excerpt: (§7) Defrosted cryo-preserved hepatocytes (viability>70%) may be used to determine the metabolic stability of a compound via calculation of intrinsic clearance (Clint; a measure of the removal of a compound from the liver in the absence of blood flow and cell binding). Clearance data are particularly important for in vitro work as they can be used in combination with in vivo data to predict the half-life and oral bioavailability of a drug.
(§8) The metabolic stability in hepatocytes assay involves a time-dependent reaction using both positive and negative controls. The cells were pre-incubated at 37° C. and spiked with test compound (and positive control); samples were taken at pre-determined time intervals and analysed to monitor the change in concentration of the initial drug compound over 60 minutes. A buffer incubation reaction (with no hepatocytes present) acted as a negative control and two cocktail solutions, containing compounds with known high and low clearance values (verapamil/7-hydroxycoumarin and propranolol/diltiazem), acted as positive controls. • 1. The assay was run with a cell concentration of 0.5×10^6 cells/mL in Leibovitz buffer. • 2. All compounds and controls were run in duplicate. • 3. Compound concentration was 10 μM. • 4. All compounds and controls were incubated with both cells and buffer to show turnover was due to hepatic metabolism. • 5. All wells on the incubation plate had 326.7 μL of either cells or buffer added. • 6. Prior to assay, cell and buffer-only incubation plates were preincubated for 10 mins at 37° C. • 7. The assay was initiated by adding compounds, 3.3 μL of 1 mM in 10% DMSO-90% Buffer; final DMSO concentration is 0.1%. • 8. Samples were taken at regular timepoints (0, 5, 10, 20, 40, 60 min) until 60 mins. • 9. Sample volume was 40 μL and was added to 160 μL of crash solvent (acetonitrile with internal standard) and stored on ice. • 10. At the end of the assay, the crash plates were centrifuged at 3500 rpm for 20 mins at 4° C. • 11. 80 μL of clear supernatant was removed and mixed with 80 μL of deionised water before being analysed by LC-MS/MS.
(§9) Raw LC-MS/MS data was exported to, and analysed in, Microsoft Excel for determination of intrinsic clearance. The percentage remaining of a compound was monitored using the peak area of the initial concentration as 100%. Intrinsic clearance and half-life values were calculated using a graph of the natural log of percentage remaining versus the time of reaction in minutes. Half-life (min) and intrinsic clearance (Clint in μL min^−1 10^−6 cells) values were calculated using the gradient of the graph (the elimination rate constant, k) and Equations 1 and 2.

Data set [5] concerns hepatocytes. Briefly: Hepatocyte stability assay, human. In kind it is in vitro ADME. The following applies: 10 μM compound, 0.5×10^6 cells/mL, 60 min.
From the text: as §7, §8, §9

The nature of data set [6]: Hepatocyte stability assay, mouse. The following applies: cryopreserved hepatocytes, 10 μM compound, 0.5×10^6 cells/mL, 60 min, read-out: T½. In kind it is in vitro ADME.
From the text: as §7, §8, §9

Data set [7] deals with hepatocytes. Nature of the data set: Hepatocyte stability assay, mouse. The following applies: 10 μM compound, 0.5×10^6 cells/mL, 60 min. The class given is in vitro ADME.
From the text: as §7, §8, §9

Setting [8] is: LPS 24 hr then Nigericin 1 hour.
[9] abbreviates: +GSH, 30 minute compound-GSH pre-incubation.

On to `C=C(CC(=O)OC1(c2cc(Cl)cc(Cl)c2)CCC1)C(=O)OCC(=O)O` [Example 1, 2-((4-(1-(3,5-dichlorophenyl)cyclobutoxy)-2-methylene-4-oxobutanoyl)oxy)acetic acid], for which the results for the IC50 in data set [1] (setting [8]) and in data set [2] (setting [8]) were 9.4 µM and 4.6 µM, respectively. For the same compound, the Emax (usually the greatest response seen or fitted, relative to the assay's reference) in data set [3] (+GSH) is 259%; in data set [3] (−GSH), 375%. The EC50 (usually the midpoint of the concentration-response curve) was 11.1 µM in data set [3] (setting [9]) and 7.7 µM in data set [3] (−GSH). The half-life at 10 μM came out at 116 min in data set [4] and 24 min in data set [6]. In addition, the CIint in the data set on hepatocytes [5] worked out at 13 μL min^−1 10^−6 cells; in the data set on hepatocytes [7] it was 52 μL min^−1 10^−6 cells.
For the compound `C=C(CC(=O)OC1(c2ccc(C(F)(F)F)cc2)CCC1)C(=O)OCC(=O)O` [Example 2, 2-((2-methylene-4-oxo-4-(1-(4-(trifluoromethyl)phenyl)cyclobutoxy)butanoyl)oxy)acetic acid], the IC50 (commonly the concentration needed to halve the response being measured) in data set [1] (setting [8]) turned out to be 7.7 µM; in data set [1] (from repeated experiments), 9.1 µM; in data set [2] (setting [8]), 5.2 µM; in data set [2] (from repeated experiments), 7.7 µM. For the same compound, the Emax in data set [3] (+GSH) stood at 167%; in data set [3] (−GSH), 217%. Besides, the EC50 in data set [3] (setting [9]) came to 21.6 µM; in data set [3] (−GSH), 15.4 µM. The half-life at 10 μM in data set [4] was above 460 min; in data set [6] it was 38 min. Moreover, the CIint in the data set with hepatocytes [5] is below 3 μL min^−1 10^−6 cells; in the data set on hepatocytes [7], 50 μL min^−1 10^−6 cells.
Take `C=C(CC(=O)OC1(c2ccc(Br)cc2)CCC1)C(=O)OCC(=O)O` [Example 3, 2-((4-(1-(4-bromophenyl)cyclobutoxy)-2-methylene-4-oxobutanoyl)oxy)acetic acid]: the IC50 is 12.1 µM in data set [1] (setting [8]) and 11.3 µM in data set [2] (setting [8]). In addition, the values for the half-life at 10 μM in data set [4] and in data set [6] were 174 min and 20 min, respectively. In addition, the CIint in the data set with hepatocytes [5] is reported as 9 μL min^−1 10^−6 cells; with hepatocytes [7], 95 μL min^−1 10^−6 cells.
As for `C=C(CC(=O)OC1(c2ccc(Cl)cc2)CCC1)C(=O)OCC(=O)O` [Example 4, 2-((4-(1-(4-chlorophenyl)cyclobutoxy)-2-methylene-4-oxobutanoyl)oxy)acetic acid], the IC50 amounted to 12.4 µM in data set [1] (setting [8]) and 6.9 µM in data set [2] (setting [8]). The Emax in data set [3] (+GSH) was determined as 171%; in data set [3] (−GSH), 192%. Further, the EC50 in data set [3] (setting [9]) amounted to 28.9 µM; in data set [3] (−GSH), 19 µM. Besides, the half-life at 10 μM in data set [4] is 189 min; in data set [6] it was 28 min. The figures for the CIint with hepatocytes [5] and with hepatocytes [7] were 8 μL min^−1 10^−6 cells and 69 μL min^−1 10^−6 cells, respectively.
With `C=C(CC(=O)OC1(c2cc(Cl)ccc2Cl)CCC1)C(=O)OCC(=O)O` [Example 5, 2-((4-(1-(2,5-dichlorophenyl)cyclobutoxy)-2-methylene-4-oxobutanoyl)oxy)acetic acid], the IC50 in data set [1] (setting [8]) amounted to 10.6 µM; in data set [2] (setting [8]) it was 5.3 µM. The Emax stood at 185% in data set [3] (+GSH) and 208% in data set [3] (−GSH). Further, the EC50 in data set [3] (setting [9]) was found to be 25.4 µM; in data set [3] (−GSH), 16 µM. The half-life at 10 μM in data set [4] was found to be 172 min; in data set [6], 24 min. Also, the figures for the CIint in the data set with hepatocytes [5] and in the data set on hepatocytes [7] were 9 μL min^−1 10^−6 cells and 80 μL min^−1 10^−6 cells, respectively.
With `C=C(CC(=O)OC1(c2c(Cl)cccc2Cl)CCC1)C(=O)OCC(=O)O` [Example 8, 2-((4-(1-(2,6-dichlorophenyl)cyclobutoxy)-2-methylene-4-oxobutanoyl)oxy)acetic acid], the IC50 in data set [1] (setting [8]) is 15.2 µM; in data set [2] (setting [8]), 6 µM. Moreover, the Emax in data set [3] (+GSH) was found to be 170%; in data set [3] (−GSH) it was 193%. Besides, the EC50 in data set [3] (setting [9]) was 18.7 µM; in data set [3] (−GSH) it was 12.2 µM. Moreover, the half-life at 10 μM in data set [4] is 142 min; in data set [6], 9 min. Further, the CIint in the data set with hepatocytes [5] stood at 11 μL min^−1 10^−6 cells; in the data set on hepatocytes [7], 223 μL min^−1 10^−6 cells.
`C=C(CC(=O)OC1(c2ccc(Br)cc2Cl)CCC1)C(=O)OCC(=O)O` [Example 12, 2-((4-(1-(4-bromo-2-chlorophenyl)cyclobutoxy)-2-methylene-4-oxobutanoyl)oxy)acetic acid] showed an IC50 in data set [1] (setting [8]) of 8.8 µM. Moreover, the Emax in data set [3] (+GSH) came out at 158%; in data set [3] (−GSH), 217%. The EC50 came to 7.9 µM in data set [3] (setting [9]) and 5.2 µM in data set [3] (−GSH). Moreover, the half-life at 10 μM in data set [4] was found to be 64 min; in data set [6] it was 6 min. The CIint with hepatocytes [5] is 23 μL min^−1 10^−6 cells; in the data set on hepatocytes [7] it was 239 μL min^−1 10^−6 cells.
For the compound `C=C(CC(=O)OC1(c2cc(Cl)cc(Cl)c2)CCC1)C(=O)OCCC(=O)O` [Example 13, 3-((4-(1-(3,5-dichlorophenyl)cyclobutoxy)-2-methylene-4-oxobutanoyl)oxy)propanoic acid], the values for the IC50 in data set [1] (setting [8]) and in data set [2] (setting [8]) were 12.5 µM and 5.9 µM, respectively. Further, the figures for the Emax in data set [3] (+GSH) and in data set [3] (−GSH) were 143% and 251%, respectively. In addition, the EC50 was found to be 11.6 µM in data set [3] (setting [9]) and 7.6 µM in data set [3] (−GSH). For the same compound, the half-life at 10 μM in data set [4] was 100 min; in data set [6], below 3 min. Besides, the CIint is 16 μL min^−1 10^−6 cells in the data set with hepatocytes [5] and above 460 μL min^−1 10^−6 cells with hepatocytes [7].
`C=C(CC(=O)OC1(c2ccc(C(F)(F)F)cc2)CC1)C(=O)OCC(=O)O` [Example 30, 2-((2-methylene-4-oxo-4-(1-(4-(trifluoromethyl)phenyl)cyclopropoxy)butanoyl)oxy)acetic acid]: the IC50 in data set [1] (setting [8]) was 16.7 µM; in data set [2] (setting [8]), above 100 µM. In addition, the half-life at 10 μM was determined as 86 min in data set [4] and 39 min in data set [6]. Besides, the results for the CIint with hepatocytes [5] and in the data set on hepatocytes [7] were 16 μL min^−1 10^−6 cells and 33 μL min^−1 10^−6 cells, respectively.
For the compound `C=C(CC(=O)OC1(c2ccc(C(F)(F)F)cc2)COC1)C(=O)OCCC(=O)O` [Example 32, 3-((2-methylene-4-oxo-4-((3-(4-(trifluoromethyl)phenyl)oxetan-3-yl)oxy)butanoyl)oxy)propanoic acid], the IC50 turned out to be 7.4 µM in data set [1] (setting [8]) and 11.9 µM in data set [2] (setting [8]). Besides, the half-life at 10 μM turned out to be 407 min in data set [4] and 41 min in data set [6]. For the same compound, the CIint in the data set with hepatocytes [5] is 4 μL min^−1 10^−6 cells; in the data set on hepatocytes [7], 36 μL min^−1 10^−6 cells.
